Laboratory results taken from PubChem BioAssay AID2060491 (Molecular Pharmacology Branch, DTP, NCI, 2025).

Test system: 857933-349-R-J2-PDC complex spheroids, viability
Test: Anticancer human tumor 857933-349-R-J2-PDC patient-derived colon adenocarcinoma cell line growth inhibition [GQUAD]
Conditions: for IC50: curve of first compound; for viability, T/C: stronger effect = lower value
Excerpt: DNA G-quadruplex Stabilizer Agents in Combinations in Complex Spheroids
A high-throughput screen of multi-cell type tumor spheroids was designed to identify active combinations of DNA G-quadruplex stabilizer agents and targeted small molecules. Complex spheroids include a stromal component modeled by human endothelial cells (HUVEC) and fibroblasts modeled by human mesenchymal stem cells (MSCs). The concentration ranges selected for each drug and investigational agent were based upon clinically achievable concentrations if the clinical Cmax of the agent was known.
Compounds. The drugs and investigational agents: pidnarulex (CX-5461; NSC782164), APTO-253 (NSC789042), BRACO-19 (NSC847499), peposertib (NSC802822), ceralasertib (NSC780249), elimusertib (NSC800525), camonsertib (NSC841442), AZD-1390 (NSC803789), olaparib (NSC753686), talazoparib (NSC767125), ART-558 (NSC835418), sotorasib (NSC818433), MRTX-1133 (NSC836407), SN-38 (NSC673596), topotecan (NSC609699), etoposide (NSC141540), doxorubicin (NSC123127), gemcitabine (NSC613327), 5-fluorouracil (NSC19893), paclitaxel (NSC125973), vemurafenib (NSC761431), panobinostat (NSC761190), R-306465 (JNJ-16241199; NSC773264), adavosertib (NSC754352), TP-3654 (NSC805149), carboplatin (NSC241240), KSQ-4279 (NSC840948), and staurosporine (NSC755774) were obtained from the National Cancer Institute (NCI) Developmental Therapeutics Program Chemical Repository (34). The FDA-approved anticancer drug set is available from the NCI Developmental Therapeutics Program. […] The stock solutions were prepared in dimethyl sulfoxide (DMSO, Sigma-Aldrich, St. Louis, MO, cat. D2650) at 800-fold the tested concentration and stored at -70 degrees C prior to their use. All drugs and investigational agents were tested over a range starting from a high concentration at or near the clinical Cmax and decreasing in half-log increments. If the clinical Cmax for an agent had not been determined, the highest concentration tested was 10 microM.
2.3 Cell Culture. All cells were maintained in an incubator at 37 degrees C and 5% CO2 with 95% humidity. The PDC lines were cultured according to standard operating procedures established by the NCI PDMR. All PDCs were thawed and cultured in Matrigel-coated flasks prepared with a working solution of 1X Ham's F-12 nutrient mix, without supplementation (Invitrogen, cat. 11765054), 100 U/mL penicillin-streptomycin (Invitrogen, cat. 15140122), and 2.5% Matrigel (Corning Inc., cat. 354248) for the first three passages. The 857933-349-R-J2-PDC line was cultured in 6C/Colon 1B media, which includes advanced DMEM/F-12 (Thermo Fisher Scientific, cat. 12634028), 10 mM HEPES (Thermo Fisher Scientific, cat. 15630080), 1X GlutaMAX supplement (Thermo Fisher Scientific, cat. 35050061), 0.1 mg/mL primocin (InvivoGen, cat. ant-pm-2), 10% defined fetal bovine serum, heat inactivated (HyClone Laboratories Inc., cat. SH30070.03HI), 50% L-WRN conditioned media (ATCC, cat. CRL-3276), 1.25 mM N-Acetyl-L-cysteine (Sigma-Aldrich, cat. A9165), 10 mM nicotinamide (Sigma-Aldrich, cat. N0636), 1X B-27 supplement (Thermo Fisher Scientific, cat. 17504044), 1X N-2 supplement (Thermo Fisher Scientific, cat. 17502048), 10 microM Y-27632 dihydrochloride (Tocris Bioscience, cat. 1254), and 50 ng/mL human EGF recombinant protein (Thermo Fisher Scientific, cat. PHG0311). The 485176-168-R4-J1-PDC line was cultured in Panc media, which includes all 6C/Colon 1B media components plus 100 ng/mL human FGF-10 (Thermo Fisher Scientific, cat. 100-26), 500 nM SB-431542 (Selleckchem, cat. S1067), and gastrin (Tocris, cat. 3006).
[…]

[1] = second compound 0.0316 µM, first compound 0.0316 µM
[2] = second compound 0.0316 µM, first compound 0.316 µM
[3] = second compound 0.1 µM, first compound 0.0316 µM
[4] = second compound 0.1 µM, first compound 0.316 µM
[5] = second compound 0.316 µM, first compound 0.0316 µM
[6] = second compound 0.316 µM, first compound 0.316 µM
[7] = second compound 1 µM, first compound 0.0316 µM
[8] = second compound 1 µM, first compound 0.316 µM
[9] = second compound 3.16 µM, first compound 0.0316 µM
[10] = second compound 3.16 µM, first compound 0.316 µM
[11] = second compound 10 µM, first compound 0.0316 µM
[12] = second compound 10 µM, first compound 0.316 µM
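Also: spheroids exposed to compounds for one week before readout.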
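For viability, T/C in this document: percent viability relative to vehicle DMSO wells taken as 100%.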

**Q.** Which results are given for `CCCS(=O)(=O)Nc1ccc(F)c(C(=O)c2c[nH]c3ncc(-c4ccc(Cl)cc4)cc23)c1F` + Cc1cnc(CNC(=O)c2c(=O)c3ccc(N4CCCN(C)CC4)nc3n3c2sc2ccccc23)cn1?
**A.** IC50 (second compound 0.0316 µM): 5200 nM; IC50 (second compound 0.1 µM): 1720 nM; IC50 (second compound 0.316 µM): < 31.6 nM; IC50 (second compound 1 µM): < 31.6 nM; IC50 (second compound 3.16 µM): < 31.6 nM; IC50 (second compound 10 µM): < 31.6 nM; viability, T/C [1]: 85.1%; viability, T/C (second compound 0.0316 µM, first compound 0.1 µM): 88.8%; viability, T/C [2]: 77.6%; viability, T/C (second compound 0.0316 µM, first compound 1 µM): 83.8%; viability, T/C (second compound 0.0316 µM, first compound 3.16 µM): 86.5%; viability, T/C (second compound 0.0316 µM, first compound 10 µM): 4.81%; viability, T/C [3]: 56.2%; viability, T/C (second compound 0.1 µM, first compound 0.1 µM): 58.5%; viability, T/C [4]: 52.4%; viability, T/C (second compound 0.1 µM, first compound 1 µM): 48.9%; viability, T/C (second compound 0.1 µM, first compound 3.16 µM): 47.5%; viability, T/C (second compound 0.1 µM, first compound 10 µM): 3.42%; viability, T/C [5]: 24%; viability, T/C (second compound 0.316 µM, first compound 0.1 µM): 20.3%; viability, T/C [6]: 19.5%; viability, T/C (second compound 0.316 µM, first compound 1 µM): 12.1%; viability, T/C (second compound 0.316 µM, first compound 3.16 µM): 5.66%; viability, T/C (second compound 0.316 µM, first compound 10 µM): 1.91%; viability, T/C [7]: 3.43%; viability, T/C (second compound 1 µM, first compound 0.1 µM): 2.87%; viability, T/C [8]: 2.84%; viability, T/C (second compound 1 µM, first compound 1 µM): 2.64%; viability, T/C (second compound 1 µM, first compound 3.16 µM): 3.04%; viability, T/C (second compound 1 µM, first compound 10 µM): 1.06%; viability, T/C [9]: 2.4%; viability, T/C (second compound 3.16 µM, first compound 0.1 µM): 2.36%; viability, T/C [10]: 2.38%; viability, T/C (second compound 3.16 µM, first compound 1 µM): 1.58%; viability, T/C (second compound 3.16 µM, first compound 3.16 µM): 2.13%; viability, T/C (second compound 3.16 µM, first compound 10 µM): 0.14%; viability, T/C [11]: 0.2%; viability, T/C (second compound 10 µM, first compound 0.1 µM): 0.21%; viability, T/C [12]: 0.23%; viability, T/C (second compound 10 µM, first compound 1 µM): 0.22%; viability, T/C (second compound 10 µM, first compound 3.16 µM): 0.23%; viability, T/C (second compound 10 µM, first compound 10 µM): 0.22%

**Q.** Which results are given for `CC[C@@]1(O)C(=O)OCc2c1cc1n(c2=O)Cc2cc3c(CN(C)C)c(O)ccc3nc2-1` + CN(C)c1ccc(Nc2c3ccc(NC(=O)CCN4CCCC4)cc3nc3cc(NC(=O)CCN4CCCC4)ccc23)cc1?
**A.** IC50 (second compound 0.0316 µM): 262 nM; IC50 (second compound 0.1 µM): 272 nM; IC50 (second compound 0.316 µM): 277 nM; IC50 (second compound 1 µM): 296 nM; IC50 (second compound 3.16 µM): > 316 nM; IC50 (second compound 10 µM): > 316 nM; viability, T/C (second compound 0.0316 µM, first compound 0.000999 µM): 101%; viability, T/C (second compound 0.0316 µM, first compound 0.00316 µM): 103%; viability, T/C (second compound 0.0316 µM, first compound 0.00999 µM): 101%; viability, T/C [1]: 98.2%; viability, T/C (second compound 0.0316 µM, first compound 0.0999 µM): 67%; viability, T/C [2]: 46.7%; viability, T/C (second compound 0.1 µM, first compound 0.000999 µM): 105%; viability, T/C (second compound 0.1 µM, first compound 0.00316 µM): 109%; viability, T/C (second compound 0.1 µM, first compound 0.00999 µM): 95.3%; viability, T/C [3]: 97.7%; viability, T/C (second compound 0.1 µM, first compound 0.0999 µM): 70.5%; viability, T/C [4]: 47%; viability, T/C (second compound 0.316 µM, first compound 0.000999 µM): 108%; viability, T/C (second compound 0.316 µM, first compound 0.00316 µM): 101%; viability, T/C (second compound 0.316 µM, first compound 0.00999 µM): 98.7%; viability, T/C [5]: 89.6%; viability, T/C (second compound 0.316 µM, first compound 0.0999 µM): 80.7%; viability, T/C [6]: 45.1%; viability, T/C (second compound 1 µM, first compound 0.000999 µM): 99.7%; viability, T/C (second compound 1 µM, first compound 0.00316 µM): 99.1%; viability, T/C (second compound 1 µM, first compound 0.00999 µM): 95.9%; viability, T/C [7]: 88.5%; viability, T/C (second compound 1 µM, first compound 0.0999 µM): 77.1%; viability, T/C [8]: 48%; viability, T/C (second compound 3.16 µM, first compound 0.000999 µM): 94.2%; viability, T/C (second compound 3.16 µM, first compound 0.00316 µM): 77.4%; viability, T/C (second compound 3.16 µM, first compound 0.00999 µM): 84.7%; viability, T/C [9]: 76.1%; viability, T/C (second compound 3.16 µM, first compound 0.0999 µM): 77.8%; viability, T/C [10]: 54.5%; viability, T/C (second compound 10 µM, first compound 0.000999 µM): 72.3%; viability, T/C (second compound 10 µM, first compound 0.00316 µM): 76.8%; viability, T/C (second compound 10 µM, first compound 0.00999 µM): 69.5%; viability, T/C [11]: 69.9%; viability, T/C (second compound 10 µM, first compound 0.0999 µM): 68.7%; viability, T/C [12]: 59%
